Laboratory results reported in patent publication US20110207744A1, “Method for treating cognitive deficits” (H. Lundbeck A/S, priority 2008, published 2011).

What was measured:
[1] = system: subchronic PCP treated rats; test: attentional set-shifting in subchronic PCP rat disease model (executive functioning); type: in vivo; conditions: for EDS discrimination performance (trials to criterion) vs PCP+vehicle group: 30 min before test
From the text: The attentional set-shifting paradigm is an animal model which allows assessment of executive functioning via intra-dimensional (ID) versus extra-dimensional (ED) shift discrimination learning. A schizophrenia-disease-like animal model with subchronic phencyclidine (PCP) administration plus washout period is applied.
Accordingly, the cognitive enhancing properties of a compound can be investigated by testing whether the compound is attenuating the “attentional performance impairment” induced by subchronic PCP administration in rats.
Methodology. In vivo assessment of “attentional set-shifting performance” was conducted as described by Rodefer et al. (Eur. J. Neurosci. 21:1070-1076 (2005)), and was based on a modified version of the task designed by Birrell & Brown (J. Neurosci. 20:4320-4324 (2000)). Briefly, Male Long-Evans rats (Harlan, Indianapolis, Ind.) weighing approximately 250 g at the beginning of the study in four groups (n=12 each group) were used. After habituating to the colony room environment, rats received a series of subchronic injections of PCP (5 mg/kg, i.p.) or saline twice daily for 7 days, followed by a washout period of 10 days before beginning the set-shifting procedure in which animals were required to dig in a pot to retrieve a food reward (half of a Honey Nut Cheerio® (General Mills, Minneapolis, Minn., USA)) using either digging medium or scented odor as the dimensional cue. The test chamber was a Plexiglas® box (50×37.5×25 cm) with an opaque barrier separating one-third of the box from the rest (along the long axis of the box). […]
Habituation was performed for several days before testing; a pot filled with wood chip bedding used in the rats' home cages and baited with several Cheerios® was placed in each rat's cage, to accustom them to retrieving food rewards from the pots. […] The rats therefore could investigate the digging medium with paws or snout before executing a “dig” response, and these choices were not scored. […]

dopamine D2 receptors = dopamine D2 receptors (Homo sapiens, UniProt P14416); conditions: WO 2005/016900; cited from earlier work
Chain of dopamine D2 receptors (P14416 whole entry): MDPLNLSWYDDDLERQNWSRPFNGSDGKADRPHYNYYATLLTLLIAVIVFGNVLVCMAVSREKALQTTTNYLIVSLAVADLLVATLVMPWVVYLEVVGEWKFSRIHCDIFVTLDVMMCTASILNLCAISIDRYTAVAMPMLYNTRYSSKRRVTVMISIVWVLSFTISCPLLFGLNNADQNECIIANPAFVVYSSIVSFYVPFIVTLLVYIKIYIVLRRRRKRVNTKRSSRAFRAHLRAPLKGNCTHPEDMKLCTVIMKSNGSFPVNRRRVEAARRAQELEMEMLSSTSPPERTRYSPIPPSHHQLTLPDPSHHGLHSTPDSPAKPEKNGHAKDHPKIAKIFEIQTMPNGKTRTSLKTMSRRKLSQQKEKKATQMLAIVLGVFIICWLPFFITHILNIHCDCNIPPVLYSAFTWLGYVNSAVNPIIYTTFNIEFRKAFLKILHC

α1 adrenoceptors = conditions: WO 2005/016900; cited from earlier work
dopamine D1 receptors = dopamine D1 receptors (Homo sapiens, UniProt P21728); conditions: WO 2005/016900; cited from earlier work
Chain of dopamine D1 receptors (P21728 whole entry): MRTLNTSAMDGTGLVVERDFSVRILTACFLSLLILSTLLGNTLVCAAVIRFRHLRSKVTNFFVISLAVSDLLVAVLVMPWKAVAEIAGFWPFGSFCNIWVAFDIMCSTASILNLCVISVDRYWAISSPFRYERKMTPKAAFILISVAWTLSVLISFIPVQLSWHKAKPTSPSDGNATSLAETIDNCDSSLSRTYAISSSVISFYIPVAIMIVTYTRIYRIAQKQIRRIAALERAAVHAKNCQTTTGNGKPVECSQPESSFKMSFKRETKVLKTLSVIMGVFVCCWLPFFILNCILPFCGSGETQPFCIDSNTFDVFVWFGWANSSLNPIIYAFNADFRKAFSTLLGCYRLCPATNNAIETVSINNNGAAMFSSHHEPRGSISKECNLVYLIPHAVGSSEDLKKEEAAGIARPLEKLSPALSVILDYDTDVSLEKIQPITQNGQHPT

[2] = system: sub-chronic PCP treated rats; test: novel object recognition (NOR) test in sub-chronic PCP treated rats; type: in vivo, rat
Procedure: The NOR test was performed as described in the above cited reference (Grayson 2007).
Acquisition trial. […] Data are expressed as mean±s.e.m. (n=9-10 per group) and were analysed by ANOVA and post-hoc student's t-test.
Retention trial. […] Data are expressed as mean±s.e.m. (n=9-10 per group) and were analysed by ANOVA and post-hoc student's t-test.
Data are expressed as the mean±s.e.m. (n=9-10 per group) and were analysed using ANOVA followed by post-hoc Dunnett's t-test.
Locomotor activity. […] Data are expressed as mean±s.e.m (n=9-10 per group) and were analysed by ANOVA and post-hoc Dunnett's t-test.

5-HT2 receptor = conditions: WO 2005/016900; cited from earlier work
D2 receptor = D2 receptor (Homo sapiens, UniProt P14416); test: PET study, D2 receptor occupancy (11C-raclopride tracer); type: in vivo; conditions: healthy subjects, read-out: D2 receptor occupancy in the putamen
Chain of D2 receptor (P14416 whole entry): as the sequence (P14416 whole entry) above

D1 receptor = D1 receptor (Homo sapiens, UniProt P21728); test: PET study, D1 receptor occupancy (11C-SCH23390 tracer); type: in vivo; conditions: healthy subjects, read-out: D1 receptor occupancy in putamen
Chain of D1 receptor (P21728 whole entry): as the sequence (P21728 whole entry) above

rats = test: condition avoidance response (CAR) model; type: in vivo, rat; conditions: at very low levels of D2 receptor occupancy
From the text: The compound of formula I is a putative antipsychotic compound with affinity for both dopamine D1 and D2 receptors.

[3] = system: subchronic PCP treated rats; conditions: given acutely; Rodefer et al. (2008); cited from earlier work
[4] = 2 mg/day given daily for 18 days
[5] = 10 mg/day given daily for 18 days

## CN1CCN([C@@H]2C[C@@H](c3ccccc3)c3ccc(Cl)cc32)CC1(C)C [Compound I, trans-4-((1R,3S)-6-chloro-3-phenylindan-1-yl)-1,2,2-trimethylpiperazine]
[1]; 1.25 mg/kg s.c., t=3.09, p<0.05
  EDS discrimination performance (trials to criterion) vs PCP+vehicle group: significantly attenuated
[1]; 2.5 mg/kg s.c., t=3.80, p<0.01
  EDS discrimination performance (trials to criterion) vs PCP+vehicle group: significantly attenuated
[1]; 1.25 or 2.5 mg/kg s.c., all ps>0.05
  behavior on all other discrimination problems: No evidence was found that either dose of Compound I impacted behavior
Dopamine D2 receptors
  affinity for dopamine D2 receptors (antagonist): high affinity
α1 adrenoceptors
  affinity for α1 adrenoceptors: high affinity
Dopamine D1 receptors
  affinity for dopamine D1 receptors (antagonist): high affinity
[2]; 2.5 mg/kg s.c., p<0.05 compared to vehicle
  locomotor activity (total number of line crossings): significantly reduced
[2]; acute 0.5-2.5 mg/kg s.c.
  time spent exploring the identical objects, acquisition phase: no significant difference
[2]; acute, all three doses 0.5, 1.25, 2.5 mg/kg s.c.
  sub-chronic PCP-induced impairment, novel vs familiar object exploration, retention phase: significantly attenuated
5-HT2 receptor
  affinity for the 5-HT2 receptor (antagonist): high affinity
D2 receptor; [4]
  receptor occupancy at 2 mg: 11%
D2 receptor; [5]
  receptor occupancy at 10 mg: 43%
D1 receptor; [4]
  receptor occupancy at 2 mg: 32%
D1 receptor; [5]
  receptor occupancy at 10 mg: 69%
rats
  antipsychotic activity in CAR model: possesses antipsychotic activity

## CN1CCN(C2=Nc3cc(Cl)ccc3Nc3ccccc32)CC1 [clozapine, reference compound]
[2]; 2.5 mg/kg i.p.
  PCP-induced reduction of discrimination index: no significant effect

## O=C(CCCN1CCC(O)(c2ccc(Cl)cc2)CC1)c1ccc(F)cc1 [haloperidol]
[3]
  reversing PCP-disrupted attentional performance: ineffective

## Cc1nc2n(c(=O)c1CCN1CCC(c3noc4cc(F)ccc34)CC1)CCCC2 [risperidone]
[3]
  reversing PCP-disrupted attentional performance: ineffective
